Assay results reported in patent US9790520B2, “Antimicrobial method for fermentation processes” (DeLaval Holding AB, priority 2010, dated 2017).

What was measured:
yeast = assay: Full scale ethanol plant trial: alcohol production, yeast counts/viability, glycerol; type: cell-based, Saccaromyces cerevisiae
Description: A number of full scale trials were conducted in order to evaluate the efficacy of introducing peracetic acid and hydrogen peroxide into a fermentation system was evaluated and compared to the use of conventional antibiotics. The ethanol plant tested is a 20 MGPY plant having a modified Delta T design. The plant process flow is as follows: • Corn mash cooler stage one→Corn mash cooler stage 2→fermenter←→fermenter cooler→distillation The corn mash enters the stage one cooler at 180° F. and is cooled to 140° F. It then enters the stage 2 cooler and is cooled to 90° F. Flow through the cooler is 110 gpm. From the stage 2 cooler the mash is sent to the fermenter. Once in the fermenter, the corn mash is re-circulated through a plate and frame mash cooler. When the fermenter has been filled for 30 minutes, yeast is added to the recirculating corn mash. The fermenter takes about 23 hours to fill. Once filled, fermentation begins to accelerate releasing heat which is dissipated in the fermenter cooler. The fermenter mash is sent to distillation about 56 hours after the fermenter is filled. System parameters are as follows:
During fermentation, carbohydrates, ethanol, and organic acids are monitored in order to insure that the fermentation process is occurring normally and to insure that undesirable bacteria are kept under control. […]

[1] = Residual PAA and HP in corn mash by Hach DPD total chlorine test; type: physicochemical
Description: At the point of injection, the mash temperature was 140° F. and the mash flow rate was 110 gpm. The pumps used to pump both the HP and PAA solution were Prominent diaphragm pumps fitted with Teflon liquid ends. The dose of the PAA solution was 15 ppm (as PAA) and the dose of the HP was 40 ppm (as peroxide). However, the PAA solution and HP were fed for only 15 hours of the 23 hour fermentor fill time making the overall dose 9.8 ppm of PAA solution and 26 ppm of HP.
Samples were taken every hour at the mash cooler exit and fermentation tank. The samples were tested using a Hach DPD total chlorine test. Three (3) ml of sample was added to a test tube, then one DPD powder pillow was added to the sample. […] Peracetic acid (PAA) concentration was estimated based on the hue of pink color after 30 seconds.

Which “glycerol levels (indicative of stress on the yeast)” value (yeast) does the source give for Virginiamycin [antibiotics] here?
The value was “tended to increase”.

For `OO` [HP, hydrogen peroxide], which “HP in fermenter corn mash” value ([1]; after 3 hours) is on record?
The value was “not detectable”.

With `CC(=O)OO` [PAA, peracetic acid] as the compound, how does the “PAA in fermenter corn mash” value ([1]; after two hours) read?
The value was “not detectable”.

What about the “PAA in fermenter corn mash” value ([1]; up to two hours into filling) of the same compound?
The value was “positive”.
